Patent publication US7049133B2, “Regulation of gene expression through manipulation of mRNA splicing and its uses” (Yissum Research Development Company of the Hebrew …, priority 1998, dated 2006)
Read-outs that look alike come from different tables or passages of the source.

Assays:
[1] = test system: splicing of TNF-α precursor transcripts; test: RNase protection analysis of TNF-α precursor transcripts and spliced mRNA in transfected BHK-21 cells; assay type: cell-based, hamster
Description: (§1) BHK-21 cells were grown in DMEM medium supplemented with 2 mM glutamine, 40 mM NaHCO3, 10 mM Hepes, pH 7.3, […] of penicillin and streptomycin, […] nystatin and 10% fetal calf serum. 2-AP (Sigma) was added at 10 mM unless otherwise indicated. To prepare a stock solution of 0.15 M, 2-AP was dissolved in phosphate-buffered saline by heating at 70° C. for 10 min.
(§2) In the experiments of FIGS. 2 and 3, monolayers of BHK-21 cells were seeded at a density of 1−2×10^6 cells/8-cm Petri dish and grown overnight; 4 h before cotransfection, culture medium was replaced. A mixture of […] of test DNA construct and 4 mg salmon sperm DNA carrier, and, when included, 2 mg pSV2CAT DNA [47], was permeated into cells by the calcium phosphate-DNA coprecipitation technique. After 12–18 h, culture medium was replaced with fresh medium prewarmed to 37° C. In the experiments of FIGS. 6 and 7, LipofectAmine (Life Technologies) was employed following instructions of the supplier, using 1 mg of each DNA for transfection.
(§3) For RNase protection analysis, DNA was subcloned in pBS (Stratagene) under the T3 or T7 promoter and transcribed using [a-^32P]UTP to generate labeled anti-sense RNA transcripts. A TNF-α RNA probe (map: FIG. 2A) was generated from a 821-bp EcoRI-Sau3AI fragment containing the 5′-flank, 151 -bp 5′-UTR, and first 6 codons. A second TNF-α RNA probe was generated from a 823-bp EcoRI-EcoRI 3′-UTR fragment from which a 5′-terminal fragment was removed by BstEII digestion, leaving 83 3′-terminal bp of the 3′-UTR and 250 bp beyond the 3′ cleavage site (map: FIG. 2A). A third TNF-α RNA probe (map: FIG. 2B) was generated from a 700-bp Sau3AI-Sau3AI fragment consisting of 10 bp of intron 2, exon 3, intron 3 and part of exon 4. A TNF-β probe was generated from a 637-bp Bsu36I-EcoRI DNA fragment, containing part of intron 3 and 571 bp of exon 4 (map: FIG. 3A). A second TNF-β RNA probe (map: FIG. 3B) was generated from a 324-bp EcoRI-Bsu36I DNA fragment, containing part of exon 1, exon 2, exon 3 and a portion of intron 3. A probe of 250-nt, generated from a HindIII-EcoRI fragment of the coding region of the CAT gene, was used to quantitate CAT mRNA. Intactness of RNA probes was assessed by polyacrylamide gel electrophoresis.
(§4) Total RNA was isolated using guanidinium isothiocyanate/CsC1. RNase protection analysis with RNases A and T1 was performed using genomic TNF-α and TNF-β riboprobes and CAT or actin probes as described. Protected RNA fragments were separated by electrophoresis in 5% polyacrylamide/8 M urea gels. Size markers in FIG. 3 were generated by MspI digestion of pGEM-3 DNA and filling in with [a-^32P]dCTP [12]. Size marker in FIG. 7 is a 100-bp DNA ladder (Fermentas) that was dephosphorylated and 5′ end-labeled with [γ-^32P]ATP.

[2] = test system: splicing of TNF-β precursor transcripts; test: RNase protection analysis of TNF-β precursor transcripts and spliced RNA in transfected BHK-21 cells; assay type: cell-based, hamster
Description: as §1, §2, §3, §4

CAT mRNA = test: RNase protection analysis of CAT mRNA in transfected BHK-21 cells; assay type: cell-based
Description: as §1, §2
as §3, with “A second TNF-β RNA probe (map: FIG. 3B) was generated from a 324-bp EcoRI-Bsu36I DNA fragment, containing part of exon 1, exon 2, exon 3 and a portion of intron 3.” left out, “electrophoresis. […]” for “electrophoresis.”

PKR = target: T1, PKR (Oryctolagus cuniculus, UniProt A0A0U2KCE0); test: Phosphorylation of PKR and eIF2α in ribosome fraction from rabbit reticulocyte lysate; assay type: biochemical
T1 construct: phosphorylation of the PKR (68 kDa) and eIF2α (38 kDa) bands in the ribosome fraction of rabbit reticulocyte lysate; from tissue; host or cells: ribosome fraction of rabbit reticulocyte lysate
T1 sequence (A0A0U2KCE0 1-547): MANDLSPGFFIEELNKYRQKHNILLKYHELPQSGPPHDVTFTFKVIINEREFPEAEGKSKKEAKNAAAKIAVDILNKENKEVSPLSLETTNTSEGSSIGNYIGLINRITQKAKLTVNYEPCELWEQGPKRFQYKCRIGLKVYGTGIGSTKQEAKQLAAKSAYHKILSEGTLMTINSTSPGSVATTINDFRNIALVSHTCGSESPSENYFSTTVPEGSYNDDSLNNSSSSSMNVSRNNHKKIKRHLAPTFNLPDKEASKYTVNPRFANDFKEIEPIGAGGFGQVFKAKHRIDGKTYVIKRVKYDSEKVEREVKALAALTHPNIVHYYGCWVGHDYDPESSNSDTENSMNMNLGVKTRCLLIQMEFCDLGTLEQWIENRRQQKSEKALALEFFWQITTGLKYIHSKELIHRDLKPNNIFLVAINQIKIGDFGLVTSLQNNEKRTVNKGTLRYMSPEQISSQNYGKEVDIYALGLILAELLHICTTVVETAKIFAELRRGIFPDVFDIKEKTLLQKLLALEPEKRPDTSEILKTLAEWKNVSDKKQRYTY
Text: A 823-bp EcoRI-EcoRI TNF-α gene fragment comprised of 573 3′-terminal bp of the 3′-UTR, the polyadenylation site and downstream sequences from pTNF-α was inserted into pBS under the T7 promoter. To obtain 3′-UTR sense transcripts, the DNA was digested with PstI (EP), NcoI (EN), AflIII (EA), SspI (ES) or XmnI (EX) and then transcribed in vitro. A 616-bp NcoI-EcoRI TNF-α gene fragment comprised of 366 3′-terminal bp of the 3′-UTR, the polyadenylation site and downstream sequences from pTNF-α was inserted into pBS under the T7 promoter. To obtain 3′-UTR sense transcripts, the DNA was digested with AflIII (NA) or XmnI (NX) and then transcribed in vitro. A 572-bp EcoRI-PstI TNF-β gene fragment comprised of 389 3′-terminal bp of the 3′-UTR, the polyadenylation site and downstream sequences from pTNF-β was inserted into pBS under the T7 promoter. To obtain 3′-UTR sense transcript, the DNA was digested with PstI and then transcribed in vitro. EP RNA transcript was purified by agarose gel electrophoresis, followed by chromatography on CF-11 cellulose, washing with ethanol and eluting with water as described. Phosphorylation of PKR and eIF2α chain was assayed by incubating polyI:polyC or 3′-UTR transcript with the ribosome fraction from rabbit reticulocyte lysate in the presence of [γ-^32P]ATP for 20 min at 30° C. as described and subjecting the reaction mixture to electrophoresis in 10% polyacryamide gels containing sodium dodecyl sulfate.

BHK-21 cells = assay type: cell-based, baby hamster
Description: as §1, §2

[3] = test system: primary human lymphoid cells; conditions: cited from earlier work
[4] = pTNF-α(3′UTR-β), 2-AP from 16 h
[5] = pTNF-α, 2-AP 10 mM from 18 h after transfection
[6] = pTNF-β(3′UTR-α), 2-AP in presence of CHX
[7] = pTNF-β(3′UTR-α), intron 3/exon 4 probe, 2-AP from 16 h

## Nc1ncc2[nH]cnc2n1 [2-AP, 2-Aminopurine]
[1]; pTNF-α(3′UTR-αEP), 2-AP added at 20 h
  mRNA: decline
[1]; pTNF-α(3′UTR-αEP), 2-AP added at 20 h, at 53 h
  Rise in precursor transcripts: up to 36 fold
[1]; [4]
  Expression of spliced mRNA (341-nt band): failed to decline
  Precursor transcripts (700 nt): nor did precursor transcripts (700 nt) increase
[1]; pTNF-α(Δ3′UTR), 2-AP 10 mM
  Accumulation of precursor transcripts: nor was there any enhanced accumulation
  Expression of mRNA: no longer inhibited
[1]; pTNF-α, 2-AP 2 mM from time of transfection
  Expression of TNF-α RNA transcripts: reduction
[1]; pTNF-α, 2-AP 6 mM from time of transfection
  Expression of TNF-α RNA transcripts: full inhibition
[1]; [5]
  Expression of spliced TNF-α mRNA (341-nt band): strongly inhibited
  TNF-α precursor transcripts (700-nt band): enhanced accumulation
[2]
  Sensitivity of splicing of TNF-β precursor transcripts carrying an inverted TNF-α3′-UTR sequence, compared with TNF-β(3′UTR-α) transcripts: as sensitive
[2]; [6]
  Generation of spliced RNA: inhibited
  Precursor transcripts: increased
[2]; [7]
  Precursor transcripts: strong increase
  Spliced RNA: concomitant decline
[2]; pTNF-β(3′UTR-αEP), 2-AP added at 20 h
  Spliced mRNA versus precursor transcripts: pronounced shift from spliced mRNA to precursor transcripts
[2]; pTNF-β(Δ3′UTR)
  Expression of spliced TNF-β RNA: insensitive
[2]; pTNF-β, exon 1-3/intron 3 probe, 2-AP from 12 h
  Spliced RNA (214-nt band) and precursor transcripts: decrease
[2]; pTNF-β, intron 3/exon 4 probe, 2-AP from 12 h
  TNF-β precursor transcripts (637 nt) and mRNA (571 nt): precursors and mRNA both declined
CAT mRNA; p5′CAT(3′UTR-α)
  Expression of CAT mRNA carrying TNF-α3′-UTR portion: unaffected
CAT mRNA; p5′CAT, 10 mM 2-AP
  Expression of CAT mRNA: proceeded unabated
CAT mRNA; pSV2CAT cotransfected with pTNF-α, 2-AP 10 mM
  Expression of a cotransfected CAT gene: not affected
PKR; 1 mM 2-AP
  Sensitivity of PKR activation by 3′UTR-αEP RNA to 2-AP, compared with activation by dsRNA: less sensitive
PKR; 1 and 5 mM of 2-AP
  Phosphorylation of PKR and eIF2α driven by purified 3′UTR-αEP RNA: inhibited progressively
BHK-21 cells; FIG. 2 experiments, 2-AP up to 10 mM
  Cell viability: remained constant
BHK-21 cells; FIG. 3 experiments, 2-AP and CHX present
  Cell viability: remained constant
[3]; lymphoid cells, increasing doses
  TNF-β precursor transcripts and spliced mRNA: coordinate decline
[3]; primary human lymphoid cells
  Expression of TNF-α mRNA: blocks expression

## C[C@@H]1C[C@@H]([C@H](O)CC2CC(=O)NC(=O)C2)C(=O)[C@@H](C)C1 [CHX]
[2]; pTNF-β(3′UTR-α), CHX from 16 h
  Expression of both precursor transcripts and spliced RNA: enhanced expression

B1: 3′UTR-αEP RNA: T7 RNA transcript of the 104-bp EcoRI-PstI fragment of the human TNF-α3′-UTR (2-APRE, SEQ ID NO:1) (nucleic acid, listed as Homo sapiens)
chain: GAATTCAAACTGGGGCCTCCAGAACTCACTGGGGCCTACAGCTTTGATCCCTGACATCTGGAATCTGGAGACCAGGGAGCCTTTGGTTCTGGCCAGAATGCTGC
modifications: RNA, all phosphodiester, T or U not given here
PKR
  Induced phosphorylation of PKR and eIF2α, dependence on RNA concentration: at low but not high RNA concentrations
PKR; RNA 0.05 ng/ml, compared with dsRNA
  Activation of PKR, judged by phosphorylation of PKR (68 kDa) and eIF2α (38 kDa) bands: activated PKR even more strongly than dsRNA
PKR; each TNF RNA at 0.05 ng/ml
  Molar specific activity as inducer of PKR phosphorylation: highest molar specific activity
